Experimental data as given in US20110218170A1, “USE OF 2'-DEOXY-4'-THIOCYTIDINE AND ITS ANALOGUES AS DNA HYPOMETHYLATING ANTICANCER AGENTS” (Southern Research Institute, priority 2010, published 2011).
Like-named read-outs stand apart in the source and are kept apart here.

Key:
DNMT1 = DNMT1 protein levels by western blot in drug-treated KG1a cells; format: cell-based, human
Method: Cells were incubated with drugs for the indicated times and analyzed by western blot. (*ns indicates a non-specific band used as a loading control).

[1] = Stability in phosphate buffered saline by reverse phase HPLC (FIG. 4); format: physicochemical; conditions: PBS pH 7.4, 100 μM; for half-life at 100 μM: phosphate buffered saline, samples at 2, 20 and 90 hours
Method: One of the primary problems of the currently clinically used DNA hypomethylators 5-aza-dCyd and 5-azacytidine is the rapid degradation of these compounds by ring opening of the 5-azacytosine ring in aqueous solutions. Whether a 4′-thio modification would enhance the stability of 5-azacytosine relative to the 4′-oxonucleoside was tested (FIG. 4). In side-by-side experiments, the compounds were dissolved in PBS (phosphate buffered solution, pH 7.4) at a concentration of 100 μM. A sample was removed from each solution 2, 20, and 90 hours after addition of the drug and the concentrations of 5-aza-T-dCyd or 5-aza-dCyd were determined by reverse phase HPLC.

tumors = test: Anti-tumor activity of 5-aza-T-dCyd in in vivo tumor model (FIG. 6); conditions: mice, q1dx9; tumor size decreased several days after end of dosing
Method: (§1) Preliminary in vivo evaluation of the anti-tumor activity of T-dCyd and 5-aza-T-dCyd in mice was also conducted (FIG. 5 and FIG. 6). T-dCyd was tested against human lung NCI-H23 (FIG. 5), and also in DLD-1 colon tumor xenografts (not shown). […] However the 9-day treatment schedule is a classical schedule for a cytotoxic anticancer agent. T-dCyd as a potential DNA hypomethylating agent has not been evaluated in tumor models.
Again, the schedule in this experiment (q1dx9) was also not designed based on the supposed mechanism of action of this agent, but was designed based on a classical cytotoxic nucleoside analog, as in the case of T-dCyd. […] This type of compound might best be used in combination with other chemotherapy as a maintenance therapy. Thus, in the clinic one could envision treatment first with cytotoxic agents to kill a large percentage of rapidly dividing tumor cells, followed by treatment with non-toxic doses of hypomethylating agents for longer time periods. In a similar vein one could envisage treatment with non-toxic DNA hypomethylating agents in chemoprevention settings.

[2] = tested on: KG1a human myeloid leukemia cells; test: Incorporation into DNA in KG1a human myeloid leukemia cells (FIG. 3); format: cell-based; conditions: 300 nM, 4 h of incubation
CEM leukemia cells = test: Incorporation of [5-3H]-labelled compound into DNA of CEM leukemia cells (FIG. 2); format: cell-based, human; conditions: 100 nM of [5-3H]-labelled compound
Method: (§2) In particular, FIG. 2 refers to an experiment where CEM leukemia cells were incubated with 100 nM of [5-^3H]T-dCyd, [5-^3H]dCyd, [5-^3H]araC or [5-^3H]T-araC and the incorporation of compound into the DNA was determined. […] In contrast much less araC (or T-araC) was incorporated into the DNA. Although araCTP (or T araCTP) are also good substrates for DNA polymerases, they are known to inhibit subsequent DNA chain elongation and thereby inhibit DNA replication. […] The concentration of T-dCyd or araC required to inhibit CEM cell growth by 50% after 72 hours of incubation was 2.2 or 0.006 μM, respectively.

CEM cell = test: Inhibition of CEM cell growth; format: cell-based, human; conditions: after 72 hours of incubation, read-out: concentration required to inhibit CEM cell growth by 50%
Method: as §2

human lung NCI-H23 = test: Anti-tumor activity against human lung NCI-H23 tumor xenografts in mice (FIG. 5); format: in vivo
Method: as §1

[3] = Maximum tolerated dose (MTD) in mice; conditions: mouse, in vivo
Method: as §1

CEM cells = test: Metabolism of dCyd or T-dCyd in CEM cells; format: in vitro ADME, human; conditions: 100 nM, 1 hour
Method: The metabolites that were produced in CEM cells treated with either [5-^3H]dCyd or [5-^3H]T-dCyd were also determined (Table 1). Cells were treated with 100 nM of each compound for 1 hour and the medium and cells were extracted to determine the major metabolites that were formed. The medium was analyzed by reverse phase HPLC to measure the parent compound, deaminated product, or [^3H]-water. The acid-soluble extract was analyzed by strong anion exchange HPLC to measure the intracellular concentration of nucleotide metabolites. The radioactivity in the acid-insoluble fraction represents the amount of compound that was incorporated into DNA. […] (Note: Because dCyd was labeled at the 5 position, the [^3H] was removed from the molecule by thymidylate synthase in the process of adding a methyl group to this position. Accordingly, there will be no radioactivity in thymidine nucleotides generated from [5-^3H]dCyd).

[4] = similar experiments, FIG. 1B or not shown
[5] = 1.3 mg/kg (MTD0.65), 9 day treatment, NCI-H23 tumors in mice

| Compound | half-life at 100 μM [1] [h] | effect on DNMT1 protein level (DNMT1; [4]) | incorporation into DNA [2] | incorporation of compound into the DNA (CEM leukemia cells) | [3H] in DNA (CEM cells) | [3H] in parent compound (CEM cells) | other results |
| --- | --- | --- | --- | --- | --- | --- | --- |
| Nc1ncn([C@H]2C[C@H](O)[C@@H](CO)S2)c(=O)n1 [5-aza-T-dCyd, 5-aza-4′-thio-2′-deoxycytidine] | 293 |  |  |  |  |  | effect on DNMT1 protein level (DNMT1; doses as low as 0.1 μM, exposed for 72 or 96 h, FIG. 1E): complete depletion of DNMT1; effect on DNMT1 protein level (DNMT1; similar exposures for as little as 48 h, FIG. 1C): completely depleted DNMT1; stability in PBS relative to 5-aza-dCyd [1]: 5 fold; tumor growth inhibition (tumors): substantially inhibited the growth of the tumors |
| Nc1ncn([C@H]2C[C@H](O)[C@@H](CO)O2)c(=O)n1 [5-azadCyd, 5-aza-2′-deoxycytidine, reference compound] | 67 | depleting DNMT1 | only a moderate amount |  |  |  |  |
| Nc1ccn([C@@H]2S[C@H](CO)[C@@H](O)[C@@H]2O)c(=O)n1 [T-araC, 4′-thio-arabinofuranosylcytosine, reference compound] |  | did not deplete DNMT1 |  | much less |  |  |  |
| Nc1ccn([C@H]2C[C@H](O)[C@@H](CO)S2)c(=O)n1 [T-dCyd, 4′-thio-2′-deoxycytidine] |  |  | rapidly incorporated to very high levels | more T-dCyd was incorporated into the DNA than dCyd | 8% of total | 90% of total | IC50 (CEM cell; Homo sapiens, CCRF-CEM): 2200 nM; effect on DNMT1 protein level (DNMT1; 72 h at the 3 μM dose, FIG. 1D): complete depletion of DNMT1; effect on DNMT1 protein level (DNMT1; 72 hour exposure at low non-toxic doses, FIG. 1A): capable of reducing DNMT1; effect on DNMT1 protein level (DNMT1; 96 h at the 1 and 3 μM doses, FIG. 1D): complete depletion of DNMT1; in vivo anti-tumor activity (human lung NCI-H23; 0.9 mg/kg (MTD0.45) and 0.6 mg/kg (MTD0.3), 9 day treatment schedule): some encouraging in vivo activity; complete cures (human lung NCI-H23; [5]): 2/6; tumor growth inhibition (human lung NCI-H23; [5]): substantial growth inhibition; MTD at 9 day [3]: 2 mg/kg; radioactivity recovered as water in the medium, T-dUrd in the medium, or T-dUMP in the acid-soluble pool (CEM cells): none |
| Nc1ccn([C@@H]2O[C@H](CO)[C@@H](O)[C@@H]2O)c(=O)n1 [araC, arabinofuranosylcytosine, reference compound] |  | did not deplete DNMT1 |  | much less |  |  | IC50 (CEM cell): 6 nM |
| Nc1ccn([C@H]2C[C@H](O)[C@@H](CO)O2)c(=O)n1 [dCyd, 2′-deoxycytidine, reference compound] |  |  |  |  | 3% of total | 38% of total |  |
